Assay: Inhibition of the Fe2+ induced radical degradation of hyaluronic acid (viscosity drop)
Conditions: for Index of protection (%): hyaluronic acid 10 g/l, Fe2+ 620 ppm; for effect on the depolymerisation (radical cleavage) of hyaluronic acid in the presence of iron: in words
Protocol: The chelating microspheres prepared according to I2 are used to evaluate their capacity, via the trapping of ferrous iron Fe2+, to inhibit the radical degradation of hyaluronic acid, glycosarinoglycan implied in the moisturisation of the human dermis, which is therefore a particularly important target to protect in cosmetic and dermo-pharmaceutical applications.
A 10 g/l solution of hyaluronic acid of high molecular weight (>1,000,000g/mol or Daltons) is prepared in demineralised water. To this solution is added an amount of Fe2+ of 620 ppm.
Other chelating agents which are conventionally used in cosmetics were used and compared to the chelating microspheres, for their capacity to reduce the radical degradation of hyaluronic acid. Indices of protection, expressed in % of protection, are calculated by carrying out a ratio of the drop in viscosity observed by the presence of iron Fe2+ (620 ppm) in the presence of the chelating agent studied, and the drop in viscosity observed with and without iron Fe2+.

Compound: O/N=C(/C(=N/O)c1ccco1)c1ccco1 [2-furyldioxime]
- Index of protection (%) (concentration used 1.56 g/l): 23.5%
- Index of protection (%) (concentration used 9.37 g/l): 50%

Compound: O=C(O)CN(CCN(CC(=O)O)CC(=O)O)CC(=O)O [EDTA]
- effect on the depolymerisation (radical cleavage) of hyaluronic acid in the presence of iron: accelerated

Compound: NO [Hydroxylamine]
- Index of protection (%) (concentration used 6.25 g/l): 0%

Compound: Transferrin
- Index of protection (%) (concentration used 125 mg/l): 8.7%
- effect on the depolymerisation (radical cleavage) of hyaluronic acid in the presence of iron: accelerated
